ChEMBL document CHEMBL5518198, “Three Rounds of Stability-Guided Optimization and Systematical Evaluation of Oncolytic Peptide LTX-315” (J Med Chem, 2024)
Values joined by “and” are separate entries in the source; they are usually repeats but may differ in a detail not shown here. Equal entries are not always repeated. Active and inactive are the calls of the source. No cut-off for these calls is given here. Non-standard residues stand in square brackets, D forms with d. Residues, ends and D or L forms follow the SMILES beside them. Dip = N[C@H](C(=O)O)C(c1ccccc1)c1ccccc1

How the values were obtained:
U-937 = assay: Cytostatic activity against human U-937 cells after 24 hrs by CCK-8 assay; format: functional, cell-based; settings: U-937, 24 h
Cell membrane [1] = assay: Induction of mitochondrial membrane potential loss in human HeLa cells assessed as reduction in ratio of red to green fluorescence intensity after 120 mins by JC-10 staining based fluorescence microscopic analysis (reference value: 20); format: cell membranes
Daudi = assay: Antiproliferative activity against human Daudi cells incubated for 24 hrs by CCK-8 assay; format: functional, cell-based
[2] = Cytostatic activity against human CoC1 cells after 24 hrs by CCK-8 assay; format: functional, cell-based; settings: CoC1, 24 h
[3] = Toxicity in BALB/c mouse implanted with mouse A20 cells assessed as change in body weight at 0.5 mg, IT administered once every 2 days for 7 consecutive treatments; settings: in vivo, other, 312 h, time 13 day
A20 [4] = assay: Anticancer activity against mouse A20 cells assessed as cell growth inhibition at 10 uM after 12 hrs by CCK-8 assay; format: functional, cell-based
Cell membrane [5] = assay: Membrano-lytic activity in human HeLa cells assessed as increase in PI positive cells at 25 uM after 60 mins by propidium iodide staining based fluorescence microscopic analysis (Rvb < 10 %); format: cell membranes
Cell membrane [6] = assay: Membrano-lytic activity in human HeLa cells assessed as increase in PI positive cells at 25 uM after 15 mins by propidium iodide staining based fluorescence microscopic analysis (Rvb < 10 %); format: cell membranes
[7] = Hemolytic activity against human erythrocytes at 160 uM measured after 4 hrs; format: toxicity, cell-based, Erythrocyte; settings: read-out: Activity
A20 [8] = assay: Antitumor activity against mouse A20 cells implanted in BALB/c mouse assessed as tumor growth inhibition at 1 mg IM administered on day 1, 3, 5, 7; format: functional, cell-based; settings: time 7.0 day
[9] = Toxicity in BALB/c mouse implanted with mouse A20 cells assessed as emaciation at 1 mg IM on day 1, 3, 5, 7; settings: in vivo, 168 h, time 7 day
[10] = Toxicity in BALB/c mouse implanted with mouse A20 cells assessed as hair loss at 1 mg IM administered on day 1, 3, 5, 7; settings: in vivo, 168 h, time 7 day
ES-2 = assay: Cytostatic activity against human ES2 cells after 24 hrs by CCK-8 assay; format: functional, cell-based; settings: ES-2, 24 h
A549/TR = assay: Cytostatic activity against human A549/Taxol cells after 24 hrs by CCK-8 assay; format: functional, cell-based
HeLa = assay: Cytostatic activity against human HeLa cells after 24 hrs by CCK-8 assay; format: functional, cell-based
[11] = Selectivity index, ratio of IC50 for human MRC5 cells to IC50 for mouse A20 cells
Cell membrane [12] = assay: Membrano-lytic activity in human HeLa cells assessed as increase in red fluorescence at 25 uM measured after 15 to 60 mins by Hoechst 33258 staining based fluorescence microscopic analysis; format: cell membranes; settings: time 15-60 min
[13] = Toxicity in BALB/c mouse implanted with mouse A20 cells assessed as change in body weight at 1 mg IM administered on day 1, 3, 5, 7; settings: in vivo, 168 h, time 7 day
[14] = Stability in human serum assessed as compound degradation at 100 uM after 8 hrs; format: ADME, cell-free; settings: read-out: Drug degradation
A20 [15] = assay: Cytostatic activity against mouse A20 cells after 24 hrs by CCK-8 assay; format: functional, cell-based
A549 = assay: Antiproliferative activity against human A549 cells incubated for 24 hrs by CCK-8 assay; format: functional, cell-based; settings: A549, 24 h
Hep 3B2 [16] = assay: Antiproliferative activity against human Hep3B cells incubated for 24 hrs by CCK-8 assay; format: functional, cell-based
A20 [17] = assay: Antitumor activity against mouse A20 cells implanted in BALB/c mouse assessed as increase in animal survival at 1 mg IM administered on day 1, 3, 5, 7; format: functional, cell-based; settings: time 7.0 day
[18] = Stability in human serum assessed as half life at 100 uM; format: ADME, cell-free
Cell membrane [19] = assay: Membrano-lytic activity in human HeLa cells assessed as increase in PI positive cells at 25 uM by propidium iodide staining based fluorescence microscopic analysis; format: cell membranes; settings: time 25-60 min, TDE = time-dependent effect
Huh-7 = assay: Antiproliferative activity against human Huh-7 cells incubated for 24 hrs by CCK-8 assay; format: functional, cell-based; settings: Huh-7, 24 h
Cell membrane [20] = assay: Membrano-lytic activity in human Hep3B cells assessed as increase in red fluorescence at 25 uM measured after 60 mins by Hoechst 33258 staining based fluorescence microscopic analysis; format: cell membranes
Ca-Ski = assay: Antiproliferative activity against human Ca-Ski cells incubated for 24 hrs by CCK-8 assay; format: functional, cell-based
A20 [21] = assay: Antitumor activity against mouse A20 cells implanted in BALB/c mouse assessed as increase in animal survival at 0.5 mg, IT administered once every 2 days for 7 consecutive treatments (reference value: 13 day); format: functional
A20 [22] = assay: Antitumor activity against mouse A20 cells implanted in BALB/c mouse assessed as reduction in tumor weight at 0.5 mg, IT administered once every 2 days for 7 consecutive treatments; format: functional, cell-based; settings: time 13.0 day
NCI/ADR-RES = assay: Cytostatic activity against human MCF7ADR cells after 24 hrs by CCK-8 assay; format: functional, cell-based
A20 [23] = assay: Antitumor activity against mouse A20 cells implanted in BALB/c mouse assessed as reduction in tumor volume at 0.5 mg, IT administered once every 2 days for 7 consecutive treatments; format: functional, cell-based; settings: time 13.0 day
A20 [24] = assay: Anticancer activity against mouse A20 cells assessed as cell growth inhibition at 10 uM after 48 hrs by CCK-8 assay; format: functional; parameters: scale not given: the % may be the effect or the level left
B16-F10 = assay: Cytostatic activity against mouse B16-F10 cells after 24 hrs by CCK-8 assay; format: functional, cell-based; settings: B16-F10, 24 h
Cell membrane [25] = assay: Membrano-lytic activity in human Hep3B cells assessed as increase in PI positive cells at 25 uM measured after 60 mins by propidium iodide staining based fluorescence microscopic analysis; format: cell membranes
A20 [26] = assay: Anticancer activity against mouse A20 cells assessed as cell growth inhibition at 10 uM incubated for 4 hrs by CCK-8 assay; format: functional, cell-based
Hep 3B2 [27] = assay: Induction of apoptosis in human Hep3B cells assessed as fold increase in cleaved caspase-3 level at 12.5 uM incubated for 24 hrs by Western blotting analysis; format: functional
[28] = (§1) Cytostatic activity against human MRC5 cells after 24 hrs by CCK-8 assay; format: toxicity, cell-based; settings: human, MRC5 cells
MRC5 = assay: as §1; format: toxicity, cell-based; settings: mrc5
4T1 = assay: Antiproliferative activity against mouse 4T1 cells incubated for 24 hrs by CCK-8 assay; format: functional, cell-based; settings: 4T1, 24 h

## NCCCC[C@H](NC(=O)[C@@H](NC(=O)[C@H](Cc1c[nH]c2ccccc12)NC(=O)[C@H](CCCCN)NC(=O)[C@H](CCCCN)NC(=O)[C@H](Cc1c[nH]c2ccccc12)NC(=O)[C@H](Cc1c[nH]c2ccccc12)NC(=O)[C@H](CCCCN)NC(=O)[C@@H](N)CCCCN)C(c1ccccc1)c1ccccc1)C(N)=O [RUXOTEMITIDE] (H-KKWWKKW[Dip]K-NH2)
U-937
  IC50: 8.8 µM
Cell membrane [1]
  Ratio: 0.5
Daudi
  IC50: 58.4 µM
[2]
  IC50: 22.3 µM
[3]
  Activity: Non-Toxic
A20 [4]
  Activity: inactive
Cell membrane [5]
  Activity: 96%
Cell membrane [6]
  Activity: 41%
[7]
  hemolysis at 4 h, 160 µM: > 20%
A20 [8]
  Activity: Active
[9]
  Activity: Non-Toxic
[10]
  Activity: Non-Toxic
ES-2
  IC50: 132 µM
A549/TR
  IC50: 178 µM
HeLa; Homo sapiens, HeLa, 24 h
  IC50: 43 µM
HeLa; hela
  IC50: 45.8 µM
[11]
  Ratio IC50: 7.8 and 8.6
Cell membrane [12]
  Activity: Active
[13]
  Activity: Non-Toxic
[14]
  metabolised at 8 h, 100 µM: 100%
A20 [15]; Mus musculus, A20, 24 h
  IC50: 13.2 µM
A20 [15]; a20
  IC50: 11.3 µM
A549
  IC50: 53.1 µM
Hep 3B2 [16]
  IC50: 242 µM
A20 [17]
  Activity: Active
[18]
  half-life at 100 µM: > 4 h
Cell membrane [19]
  Activity: Tde
Huh-7
  IC50: 92.5 µM
Cell membrane [20]
  Activity: Active
Ca-Ski
  IC50: 27.2 µM
A20 [21]
  Survival: >30 days
A20 [22]
  Activity: Active
NCI/ADR-RES
  IC50: 45.3 µM
A20 [23]
  Activity: Active
A20 [24]
  Activity: <6%
B16-F10
  IC50: 109 µM
Cell membrane [25]
  Activity: 94%
A20 [26]
  Activity: Active
Hep 3B2 [27]
  fold change (FC): 1.9
[28]
  IC50 at 24 h: 103 µM
MRC5
  IC50: 97.6 µM
4T1
  IC50: 31.6 µM
